In ChEMBL document CHEMBL3603789, “N-Lipidated Peptide Dimers: Effective Antibacterial Agents against Gram-Negative Pathogens through Lipopolysaccharide Permeabilization” (J Med Chem, 2015):
Values after ≈ are worked out from the molar mass of the structure shown. Active and inactive are the calls of the source. The rule behind the calls is not given here. Bridge positions count the residues as written; N and C are the ends. Peptide text beside a SMILES is read from it. I, II: the chains in the order shown. * marks the point of attachment. Octanoyl = CCCCCCCC(=O)*

Legend:
[1] = system: Pseudomonas aeruginosa; test: Antibacterial activity against Pseudomonas aeruginosa DM23257 after 24 hrs by broth microdilution method; format: functional; conditions: DM23257, 24 h
[2] = system: Pseudomonas aeruginosa; test: Antibacterial activity against Pseudomonas aeruginosa DM23155 assessed as log reduction of viable count MIC up to 24 hrs by time-kill assay; format: functional, organism-based
[3] = system: Pseudomonas aeruginosa; test: Antibacterial activity against Pseudomonas aeruginosa DM23376 after 24 hrs by broth microdilution method; format: functional; conditions: DM23376, 24 h
[4] = system: Pseudomonas aeruginosa; test: Antibacterial activity against Pseudomonas aeruginosa DR18531 after 24 hrs by broth microdilution method; format: functional; conditions: DR18531, 24 h
[5] = system: Klebsiella pneumoniae; test: Antibacterial activity against Klebsiella pneumoniae DS07955 after 24 hrs by broth microdilution method; format: functional; conditions: DS07955, 24 h
[6] = system: Pseudomonas aeruginosa; test: Antibacterial activity against Pseudomonas aeruginosa DM23155 after 24 hrs by checkerboard assay in presence of nalidixic acid; format: functional
[7] = Toxicity in human corneal fibroblasts assessed as cell viability at > 2000 uM after 4 hrs by ATP luminescent assay; format: cell-based; conditions: fibroblast
[8] = Induction of calcein leakage from DOPC artificial membrane at 1:32 ratio of compound to lipid by fluorescence assay; format: physicochemical
[9] = system: Pseudomonas aeruginosa; test: Antibacterial activity against Pseudomonas aeruginosa DM4150R after 24 hrs by broth microdilution method; format: functional
[10] = system: Escherichia coli; test: Antibacterial activity against Escherichia coli ATCC 25922 after 24 hrs by checkerboard assay in presence of gentamicin; format: functional
[11] = system: Pseudomonas aeruginosa; test: Antibacterial activity against Pseudomonas aeruginosa DR5790 after 24 hrs by broth microdilution method; format: functional; conditions: DR5790, 24 h
[12] = system: Pseudomonas aeruginosa; test: Antibacterial activity against Pseudomonas aeruginosa DM23155 assessed as log reduction of viable count at 2 times MIC after 30 mins by time-kill assay relative to control; format: functional
[13] = system: Mus musculus; test: Corneal toxicity in mouse at 6.25 mg/kg, iv measured 24 hrs after last dose; format: organism-based; conditions: in vivo
[14] = Toxicity in New Zealand white rabbit erythrocytes assessed as hemolytic activity after 60 mins; format: cell-based, Oryctolagus cuniculus; conditions: erythrocyte, 1 h
[15] = system: Escherichia coli; test: Antibacterial activity against Escherichia coli ATCC 25922 after 24 hrs by broth microdilution method; format: functional; conditions: ATCC 25922, 24 h
[16] = system: Escherichia coli; test: Antibacterial activity against Escherichia coli DM17528 after 24 hrs by broth microdilution method; format: functional; conditions: DM17528, 24 h
[17] = system: Escherichia coli; test: Antibacterial activity against Escherichia coli ATCC 25922 after 24 hrs by checkerboard assay in presence of erythromycin; format: functional
[18] = Toxicity in human corneal fibroblasts assessed as cell viability at > 2000 uM after 4 hrs by LDH assay; format: cell-based; conditions: fibroblast
[19] = system: Pseudomonas aeruginosa; test: Antibacterial activity against Pseudomonas aeruginosa DM23155 after 24 hrs by checkerboard assay in presence of erythromycin; format: functional
[20] = system: Mus musculus; test: Corneal toxicity in mouse at 100 mg/kg, ip measured 24 hrs after last dose; format: organism-based; conditions: in vivo
[21] = system: Pseudomonas aeruginosa; test: Induction of cytoplasmic membrane depolarization in Pseudomonas aeruginosa DM23155 at 4 times MIC after 1 hr by fluorescence assay; format: functional, organism-based
[22] = system: Pseudomonas aeruginosa; test: Antibacterial activity against Pseudomonas aeruginosa DR4877 after 24 hrs by broth microdilution method; format: functional; conditions: DR4877, 24 h
[23] = system: Pseudomonas aeruginosa; test: Antibacterial activity against Pseudomonas aeruginosa ATCC 9027 after 24 hrs by broth microdilution method; format: functional; conditions: ATCC 9027, 24 h
[24] = system: Pseudomonas aeruginosa; test: Antibacterial activity against Pseudomonas aeruginosa DU14476 after 24 hrs by broth microdilution method; format: functional; conditions: DU14476, 24 h
[25] = system: Escherichia coli; test: Antibacterial activity against Escherichia coli ATCC 25922 after 24 hrs by checkerboard assay in presence of nalidixic acid; format: functional
[26] = system: Klebsiella pneumoniae; test: Antibacterial activity against Klebsiella pneumoniae DU31158 after 24 hrs by broth microdilution method; format: functional; conditions: DU31158, 24 h
[27] = system: Pseudomonas aeruginosa; test: Antibacterial activity against Pseudomonas aeruginosa ATCC 27853 after 24 hrs by broth microdilution method; format: functional; conditions: ATCC 27853, 24 h
[28] = system: Pseudomonas aeruginosa; test: Induction of cytoplasmic membrane disruption in Pseudomonas aeruginosa DM23155 assessed as membrane integrity at 1 to 2 times MIC after 1 hr by fluorescence assay; format: functional
[29] = system: Lipopolysaccharide (LPS); test: Induction of Escherichia coli 0111:B4 LPS neutralization using p-nitroaniline assessed as concentration required to neutralize 50% after 1 hr by limulus amebocyte lysate assay
[30] = system: Pseudomonas aeruginosa; test: Antibacterial activity against Pseudomonas aeruginosa DM23155 after 24 hrs by checkerboard assay in presence of streptomycin; format: functional
[31] = Induction of calcein leakage from DOPE/DOPG artificial membrane at 1:32 ratio of compound to lipid by fluorescence assay; format: physicochemical
[32] = system: Escherichia coli; test: Antibacterial activity against Escherichia coli ATCC 25922 after 24 hrs by checkerboard assay in presence of streptomycin; format: functional
[33] = system: Pseudomonas aeruginosa; test: Antibacterial activity against Pseudomonas aeruginosa DM23155 after 24 hrs by checkerboard assay in presence of gentamicin; format: functional
[34] = system: Escherichia coli; test: Antibacterial activity against Escherichia coli ATCC 25922 after 24 hrs by checkerboard assay in presence of kanamycin; format: functional
[35] = system: Lipopolysaccharide (LPS); test: Displacement of dansylcadaverine from Escherichia coli 0111:B4 LPS at 15 to 30 uM after 5 mins by high-throughput fluorescence displacement assay
[36] = system: Klebsiella pneumoniae; test: Antibacterial activity against Klebsiella pneumoniae DM4299 after 24 hrs by broth microdilution method; format: functional; conditions: DM4299, 24 h
[37] = system: Mus musculus; test: Corneal toxicity in mouse at 1 to 3 mg/ml applied topically 5 times per day measured 24 hrs after last dose; format: organism-based; conditions: in vivo, topical_or_ocular
[38] = system: Pseudomonas aeruginosa; test: Antibacterial activity against Pseudomonas aeruginosa DM23155 after 24 hrs by checkerboard assay in presence of kanamycin; format: functional
[39] = system: Escherichia coli; test: Antibacterial activity against Escherichia coli DS17232 after 24 hrs by broth microdilution method; format: functional; conditions: DS17232, 24 h
[40] = system: Klebsiella pneumoniae; test: Antibacterial activity against Klebsiella pneumoniae DB55301 after 24 hrs by broth microdilution method; format: functional; conditions: DB55301, 24 h
[41] = system: Klebsiella pneumoniae; test: Antibacterial activity against Klebsiella pneumoniae DS16260 after 24 hrs by broth microdilution method; format: functional; conditions: DS16260, 24 h
[42] = system: Pseudomonas aeruginosa; test: Antibacterial activity against Pseudomonas aeruginosa DM23155 after 24 hrs by broth microdilution method; format: functional; conditions: DM23155, 24 h
[43] = system: Pseudomonas aeruginosa; test: Antibacterial activity against Pseudomonas aeruginosa DM23155 assessed as log reduction of viable count at 2 times MIC after 24 hrs by time-kill assay; format: functional, organism-based

MIC [1]: 3 µM (≈ 7.63 µg/mL) | MIC [3]: 3 µM (≈ 7.63 µg/mL) | MIC [4]: 1.5 µM (≈ 3.81 µg/mL) | MIC [5]: 10 µM (≈ 25.4 µg/mL) | Activity [8]: Active | MIC [9]: 3 µM (≈ 7.63 µg/mL) | MIC [11]: 3 µM (≈ 7.63 µg/mL) | MIC [15]: 6 µM (≈ 15.3 µg/mL) | MIC [16]: 10 µM (≈ 25.4 µg/mL) | MIC [22]: 3 µM (≈ 7.63 µg/mL) | MIC [23]: 3 µM (≈ 7.63 µg/mL) | MIC [24]: 3 µM (≈ 7.63 µg/mL) | MIC [26]: 10 µM (≈ 25.4 µg/mL) | MIC [27]: 3 µM (≈ 7.63 µg/mL) | EC50 [29]: 73.4 µM | Activity [31]: Active | Activity [35]: 121% | MIC [36]: 3 µM (≈ 7.63 µg/mL) | MIC [39]: 10 µM (≈ 25.4 µg/mL) | MIC [40]: 10 µM (≈ 25.4 µg/mL) | MIC [41]: 3 µM (≈ 7.63 µg/mL) | MIC [42]: 3 µM (≈ 7.63 µg/mL)
SMILES: CCCCCCCC(=O)N[C@@H](CCCNC(=N)N)C(=O)NCC(=O)N[C@@H](CCCNC(=N)N)C(=O)N[C@@H](CCCCN)C(=O)N[C@H](C(=O)N[C@H](C(=O)N[C@@H](CCCNC(=N)N)C(=O)N[C@@H](CCCNC(=N)N)C(=O)NCCCC[C@H](NC(=O)[C@H](CCCNC(=N)N)NC(=O)[C@H](CCCNC(=N)N)NC(=O)[C@@H](NC(=O)[C@@H](NC(=O)[C@H](CCCCN)NC(=O)[C@H](CCCNC(=N)N)NC(=O)CNC(=O)[C@H](CCCNC(=N)N)NC(=O)CCCCCCC)C(C)C)C(C)C)C(=O)N[C@@H](CCCCN)C(=O)O)C(C)C)C(C)C (I: Octanoyl-RGRKVVRRKK-OH / II: Octanoyl-RGRKVVRR; amide I:9-II:C)
Activity [2]: Dose-dependent effect | fractional inhibitory concentration index (FICI) [6]: 0.5 | Activity [7]: > 2000 µM | fractional inhibitory concentration index (FICI) [10]: 0.31 | FC [12]: 3 | Activity [13]: Non-toxic | HC10 [14]: > 10000 µg/mL | fractional inhibitory concentration index (FICI) [17]: 0.56 | Activity [18]: > 2000 µM | fractional inhibitory concentration index (FICI) [19]: 0.56 | Activity [20]: Non-toxic | Activity [21]: Active | fractional inhibitory concentration index (FICI) [25]: 0.5 | Activity [28]: >80% | fractional inhibitory concentration index (FICI) [30]: 0.56 | fractional inhibitory concentration index (FICI) [32]: 0.31 | fractional inhibitory concentration index (FICI) [33]: 0.38 | fractional inhibitory concentration index (FICI) [34]: 0.31 | Activity [37]: Non-toxic | fractional inhibitory concentration index (FICI) [38]: 0.56 | Activity [43]: Active
